Legend:
[1] = test system: H1975 (EGFR^L858R+T790M) cells; assay: Apoptosis by Annexin V/PI staining with flow cytometry; assay type: cell-based, human
Experimental: Annexin V/PI staining is used to detect early and late stages of apoptosis. According to the manufacturer's protocol (BD Pharmingen), 5×10^5 cells of the treated and control groups were harvested, washed, and double-stained with Annexin V/PI for 15 min at room temperature in dark. Then apoptotic cells were quantitatively counted by a flow cytometer (BD FACSAria III). Early stage of apoptotic cells were stained with Annexin V-positive and PI-negative, while the late stage of apoptotic cells were stained with Annexin V-positive and PI-positive.
Example 6 further studies if the sanguinarine-induced apoptosis in H1975 (EGFR^L858R+T790M) is in caspases-dependent manner H1975 cells were treated with 1.25 μM sanguinarine and 1.25 μM sanguinarine together with 50 μM pan-caspase inhibitor for 24 hrs.

[2] = test system: H2228 (EML4-ALK fusion gene); details: method not stated; cited from earlier work
[3] = test system: JNK, p38; assay: Western blot of phosphorylation of JNK and p38; assay type: cell-based, human; details: 5 μM NAC and 1.25 μM sanguinarine
Experimental: (§1) Cells were lysed in RIPA lysis buffer with protease and phosphatase inhibitors added for total whole cell protein extraction. The concentration of the total protein extract was determined by Bio-Rad DCTM protein assay kit (Bio-Rad). Then samples were loaded and separated onto a 10% SDS-PAGE gel and then the separated proteins were transferred to a Nitrocellulose (NC) membrane. Membranes were blocked with 5% milk without fat in TBST for 1 hour at room temperature. Primary antibodies (1:1000 dilutions for Cell Signaling antibodies; 1:500 dilutions for Santa Cruz antibodies) were added and incubated overnight at 4° C. On the other day, membrane was washed by TBST for three times (5 mins/wash), while secondary fluorescent antibody (1:10000 dilutions) was added to membrane and incubated at room temperature for 1 hr. Actin was used as loading control and for normalization. The signal intensity of the membranes was detected by Odessy (LI-COR).
ROS intensity was increased with the increase of sanguinarine treatment time. Sanguinarine-induced apoptosis in H1975 cells, in which the cells were pre-treated with 5 μM NAC and a ROS generation inhibitor, was also studied. […] Also, P-EGFR 1045 as shown in FIG. 6 is a tyrosine(Y) phosphorylation site of EGFR at amino acid position 1045 (Y1045) and phosphorylation of this site will lead to activation of EGFR degradation after cbl docking to this site

[4] = test system: EGFR; assay: Western blot analysis of the protein level of EGFR; assay type: cell-based, human; details: 5 μM NAC and 1.25 μM sanguinarine
Experimental: as §1
In Example 3, the protein level of EGFR after sanguinarine treatment with difference dosage and duration was analyzed.

C[n+]1cc2c3c(ccc2c2ccc4cc5c(cc4c21)OCO5)OCO3 [sanguinarine]
more cell debris than control ([1]; H1975, 1.25 μM, 24 hrs): 20%
increase in early stage of apoptosis compared with the control group ([1]; H1975, 1.25 μM, 24 hrs, early stage (Q3)): 7.2 fold

COc1cc2ncnc(Nc3ccc(F)c(Cl)c3)c2cc1OCCCN1CCOCC1 [Gefitinib]
Gefitinib Sensitivity [2]: Resistant

CC(=O)N[C@@H](CS)C(=O)O [NAC]
apoptosis induced by sanguinarine after NAC pre-treatment ([1]; H1975, pre-treated with 5 μM NAC, sanguinarine): completely blocked
phosphorylation of JNK, p38 induced by sanguinarine [3]: block
EGFR degradation induced by sanguinarine [4]: block

— patent publication US20140371254A1, “NOVEL TREATMENT OF GEFITINIB-RESISTANT NON-SMALL-CELL LUNG CANCER” (Macau University of Science and Technology, priority 2013, published 2014)
